Test results taken from patent publication US20250161285A1, “BACTERIAL BIOFILM INHIBITORS” (THE RESEARCH INSTITUTE AT NATIONWIDE CHILDREN'S HOSPITAL, priority 2022, published 2025).
Like-named read-outs stand apart in the source and are kept apart here.

How the values were obtained:
[1] = tested on: S. Typhimurium ATCC 14028 (JSG210) biofilms; test: Biofilm inhibition assay (crystal violet staining); format: cell-based, Salmonella enterica serovar Typhimurium; conditions: for IC50: inhibition of S. Typhimurium biofilm formation, compound present 24 h, crystal violet OD570, mean ± standard deviation
Method: Inhibition of biofilm formation is assessed by growing bacteria in a 96-well plate in the absence (control) or presence of test compounds. After 24 hours, the wells are washed to remove planktonic bacteria, and the remaining surface attached bacteria (biofilm) are stained with crystal violet (CV). The wells are then washed again to remove excess CV, and the remaining CV is solubilized with a solution of acetic acid and then quantified by spectrophotometry at 570 nm. A dose response curve is then constructed from which an IC50 value is determined.
(§1) Salmonella biofilm growth and crystal violet staining. […] For biofilm assays, individual bacterial colonies were picked and used to inoculate LB broth for overnight liquid cultures, which were grown at 37° C. with aeration using a rotating drum. […] Biofilm plates were then submerged in dH2O to wash away any remaining non-adherent bacteria and heat fixed (1h, 60° C.). Biofilms were then stained with a 33% crystal violet solution (6 mL PBS, 3.3 mL crystal violet, 333 μL methanol, 333 μL isopropanol) for 5 min. and washed twice by submerging in dH2O before releasing the bound dye with 33% glacial acetic acid. Biofilm growth was then quantified by measuring the optical density of the solubilized dye at 570 nm using a spectrophotometer (Molecular Devices, SpectraMax M5).
(§2) Biofilm Inhibition and Dispersion Assays and IC50/EC50 Determination. […] Biofilms were then grown as described above for a total of 24 h prior to CV staining. […] Biofilms were then incubated for an additional 24 h in the presence of compounds prior to CV staining. IC50/EC50 values were calculated by plotting normalized compound activity (percent biofilm formed and percent remaining, respectively) as a function of log10 compound concentration and fitting a dose response curve (log[inhibitor] vs. normalized response, variable slope).

[2] = tested on: S. Typhimurium ATCC 14028 (JSG210) biofilms; test: Biofilm dispersion assay on pre-formed biofilms (crystal violet staining); format: cell-based, Salmonella enterica serovar Typhimurium; conditions: 50% dispersion of biofilms established 24 h, then 24 h with compound, crystal violet OD570; mean ± standard deviation
Method: as §1, §2

[3] = tested on: S. Typhimurium ATCC 14028; test: Murine model of chronic Salmonella gallbladder carriage, combination with ciprofloxacin; format: in vivo, 129X1/SvJ NRAMP+/+ mice; conditions: for reduction in bacterial burden in the gallbladder: 5 mg/kg/day compound + 1 mg/kg/day cipro I.P., 15 dpi
Method: FIGS. 5A-5F provide graphs showing Enumeration of Salmonella in the gallbladder, liver, and spleen of infected mice at 15 dpi. […] Dotted lines represent the limit of detection where applicable; significant differences among the bacterial burden of treatment groups were determined via one-way ANOVA with the Tukey correction for multiple comparisons; ns non-significant, * p<0.05, ** p<0.01, *** p<0.001, **** p<0.0001.
Murine model of chronic Salmonella gallbladder carriage and evaluation of compound therapeutic efficacy in combination with ciprofloxacin. A total of 46 adult 129X1/SvJ NRAMP^+/+ mice (The Jackson Laboratory, Bar Harbour, ME) were used in this study. […] Mice were randomly assigned to treatment groups in two separate experiments. […] Treatments were administered daily via I.P. injection from days 5-15 post-infection. On day 15 post-infection, mice were euthanized and gallbladders, livers, and spleens were removed and homogenized in a volume of 1 mL sterile PBS using a TissueLyser LT bead mill (Qiagen, Valencia, CA). Tissue homogenates were serially diluted in PBS, plated onto LB agar, and incubated at 37° C. for 16h in order to quantify bacterial burden via CFU enumeration.

[4] = tested on: S. Typhimurium ATCC 14028; conditions: cited from earlier work
[5] = 5 mg/kg/day 7d + 4 mg/kg/day cipro, I.P., days 5-15
[6] = 2 mg/kg/day cipro alone, I.P., days 5-15 post-infection

SMILES	IC50 [1] [µM]	EC50 [2] [µM]	reduction in bacterial burden in the gallbladder ([3]; days 5-15 post-infection)	further results
CN(Cc1ccsc1)CC1CCN(CCc2ccccc2F)CC1 [Compound 1]	5.7	829	~2 log-fold	reduction in the bacterial burden in the gallbladder ([4]; compound 1 10 mg/kg/day + ciprofloxacin 1.0 mg/kg/day (Sandala et al., 2020)): 3-4.5 log; reduction of bacterial burden in the gallbladder ([4]; compound 1 at 10 mg/kg/day, previous experiments (Sandala et al., 2020)): several logs
CN(Cc1ccsc1)CC1CCN(CCc2cccc(Cl)c2Cl)CC1 [Compound 7b]	–	–	~1.5 log-fold	–
CN(Cc1ccsc1)CC1CCN(CCc2ccc(Br)c(Br)c2)CC1 [Compound 7d]	–	–	4.5-5 log-fold	CFUs recovered in all organs (gallbladder, liver, spleen) [3, 5]: neared the limit of detection; gallbladder bacteria versus 4 mg/kg/day cipro alone [3, 5]: additional significant reduction; reduction of bacterial burden in the gallbladder ([3]; compound with ciprofloxacin): 4.5-5 logs
CN(Cc1ccsc1)CC1CCN(Cc2ccc(I)cc2)CC1 [Compound 8f]	5.7 ± 2.9	77 ± 3	–	–
Cc1ccccc1CCN1CCC(CN(C)Cc2ccsc2)CC1 [Compound 8g]	6.3 ± 2.3	247 ± 11	–	–
CC(C)c1ccc(CCN2CCC(CN(C)Cc3ccsc3)CC2)cc1 [Compound 8h]	2.3	123 ± 7	–	–
CN(Cc1ccsc1)CC1CCN(CCc2cccc(-c3ccccc3)c2)CC1 [Compound 8i]	1.8	31 ± 4	–	fold improvement of IC50 versus comparator ([1]; 6a vs 4c, 6b vs 4d, 6g vs 4c and 4d, 8i vs 8b): two-fold
CN(Cc1ccsc1)CC1CCN(CCc2ccc(-c3ccccc3)cc2)CC1 [Compound 8j]	–	–	3.5-4 log-fold	–
CN(Cc1ccsc1)CC1CCN(CCc2cccc3ccccc23)CC1 [Compound 8k]	2.5	28 ± 5	–	–
O=C(O)c1cn(C2CC2)c2cc(N3CCNCC3)c(F)cc2c1=O [cipro, ciprofloxacin, reference compound]	–	–	–	bacteria recovered from the liver and spleen [3, 6]: reduce the number of bacteria recovered; effect on bacterial burden within the gallbladder [3, 6]: no statistically significant effect; reduction of bacterial gallbladder burden ([3]; 4 mg/kg/day cipro alone, I.P., days 5-15 post-infection): 3-4 logs
